The results in this text go back to PMC3760172 (Bioorganic & medicinal chemistry, 2013).

This experiment addresses rat nNOS (Rattus norvegicus, UniProt P29476). The experiment can be described thus: NOS inhibition assay. The experiment is classed as biochemical. Conditions: compared with inhibitor 27.

With `Cc1cc(N)nc(COc2cccc(NCCc3cccc(F)c3)c2)c1` [Compound 24], the “decrease in potency (nNOS) relative to 27” value stood at 54 fold.
